Where two headings read alike, the source gives them in different places. Each block holds one compound with its values, some of them ahead of it.
Legend:
[1] = ether bond
[2] = system: Ba/F3-TPM3-NTRK1-G667C cells; test: Growth inhibition of Ba/F3-TPM3-NTRK1-G667C cells (Cell Titer-Glo); type: cell-based; conditions: 72 hours, CTG; read-out: inhibitory activity IC50 Ba/F3-TPM3-NTRK1-G667C
How it was run: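 Ba/F3 cells were exposed for 72 hours to serially DMSO-diluted compound at a top final concentration of 10 μM. Viability was read by Cell Titer-Glo luminescence after the plate equilibrated 30 min at room temperature and was then shaken 1 hour in the dark at room temperature.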

[3] = system: Ba/F3-TPM3-NTRK1-G595R cells; test: Growth inhibition of Ba/F3-TPM3-NTRK1-G595R cells (Cell Titer-Glo); type: cell-based; conditions: 72 hours, CTG; read-out: inhibitory activity IC50 Ba/F3-TPM3-NTRK1-G595R
Procedure: (§1) Then the solutions were subjected to a gradient dilution with DMSO: a clean, sterile V-bottom 96-well microplate was placed in the biological safety cabinet. First, 4 μL of DMSO was added to well B2 and 10 μL of DMSO was added to wells B3-B11 respectively; Next, 6 μL of the 10 mM solution was added to well B2. The microplate was pipetted up and down 10 times for mixing. […] Mixing was performed by pipetting up and down 10 times. The solution was diluted in order until well B10. only DMSO was added to well B11 (no compound).
(§2) 6× Compound Solution Preparation (6-fold dilution, × represents dilution factor): (Initial final concentration: 10 μM), a clean, sterile V-bottom 96-well microplate was placed in the biological safety cabinet. 99 μL of cell culture medium was added to each well from B2 to G11. By using a 12-channel pipettor, 1 μL of the compound solution prepared in the previous step was added into the corresponding wells. The solutions were pipetted up and down 10 times to mix the solutions. The highest concentration of compound in this step was 60 μM.
(§3) Treatment of Cells: the above-prepared cell culture plate was taken out of the incubator. 20 μL of compound solution from each well was added to the corresponding cell culture wells. The lowest pipetting speed was used and touching the bottom of the plate was avoided. The culture plate was gently shaked to mix the compound solution, then the plate was returned to the incubator for further culture for 72 hours.
(§4) The highest treatment concentration of the compound was 10 μM. After 72 hours of treatment, the Cell Titer-Glo (CTG) assay was performed. First, the cell culture plate was removed from the CO2 incubator and allowed to stand at room temperature for 30 minutes to ensure uniform temperature of the plate. The pre-prepared Cell Titer-Glo reagent (following the manufacturer's instructions) was taken and allowed to stand at room temperature to thaw. 60 μL of Cell Titer-Glo reagent was added to each well containing cells. The cells were incubated on a horizontal shaker in a dark place at 225 rpm for 1 hour at room temperature. Then, a Tecan Spark microplate reader was used to read the plate using chemiluminescence according to the manufacturer's instructions.

[4] = system: Ba/F3-TPM3-NTRK1-WT cells; test: Growth inhibition of Ba/F3-TPM3-NTRK1-WT cells (Cell Titer-Glo); type: cell-based; conditions: 72 hours, CTG; read-out: inhibitory activity IC50 Ba/F3-TPM3-NTRK1-WT
Procedure: as §1, §2, §3, §4

[5] = system: Ba/F3-TPM3-NTRK1-WT subcutaneous xenograft; test: Efficacy in Ba/F3-TPM3-NTRK1-WT subcutaneous xenograft tumor model; type: in vivo, NOD-SCID mice
Procedure: Cell culture: Ba/F3-TPM3-NTRK1-WT cells were cultured in RPMI 1640 medium containing 10% FBS. Ba/F3-TPM3-NTRK1-WT cells in logarithmic growth phase were collected, the required total number of cells was calculated, and the cells were resuspended in a suitable volume of PBS mixture (PBS:Matrigel=1:1 (v/v)) with a cell suspension concentration of 5×106/0.1 mL for subcutaneous inoculation on the right side of NOD-SCID mice.
Method: On Day 0, all animals were subcutaneously inoculated with 0.1 mL (5×10^6 Ba/F3-TPM3-NTRK1-WT cells) of cell suspension (PBS:Matrigel=1:1, VN) on the right back. After the tumor growed to an average volume of 178.3 mm3, the mice were grouped and administrated. The average tumor volume of the enrolled animals is 178.3 mm^3. The mice were divided into two groups. Group-1 (Vehicle) and Group-2 (10 mg/kg, I-52). Each group consisted of 6 animals. All groups were administered orally by gavage with a frequency of BID, for a total of 29 days.
(§5) Tumor volume inhibition rate TGITV (%): TGI %=(1−ΔT/ΔC)×100%, wherein ΔC is the tumor volume Ct−C0 of the control group, C0 is the average tumor volume of the control group at the time of grouping, Ct is the average tumor volume of the control group after treatment, ΔT is the tumor volume Tt−T0 of the treatment group, T0 is the average tumor volume of the […] after treatment.
Pharmacological activity was evaluated based on tumor suppression rate (TGITV), and tolerance was evaluated based on changes in animal weight and mortality.

[6] = system: Ba/F3-TPM3-NTRK1-G667C subcutaneous xenograft; test: Efficacy in Ba/F3-TPM3-NTRK1-G667C subcutaneous xenograft tumor model; type: in vivo, NOD-SCID mice; conditions: 10 mg/kg oral BID
Procedure: Cell Culture: Ba/F3-TPM3-NTRK1-G667C cells were cultured in RPMI 1640 medium containing 10% FBS. Log-phase cells were collected, and the total number of cells required was calculated. Cells were resuspended in an appropriate volume of PBS mixture solution (PBS:Matrigel=1:1, v/v) at a concentration of 5×10^6 cells/0.1 mL for subcutaneous inoculation into the right flank of NOD-SCID mice.
Method: at Day 0, all animals were subcutaneously inoculated with 0.1 mL (5×10^6 cells) of Ba/F3-TPM3-NTRK1-G667C cell suspension (PBS:Matrigel=1:1, v/v) on the right flank. When the tumors reached an average volume of 197.2 mm^3, dosing and grouping began. […] The animals were divided into two groups: Group 1: Vehicle control; Group 2: 10 mg/kg of compound 1-52. Each group contained six mice. All groups were administered orally via gavage twice daily (BID) for 29 days.
as §5, with “Tumor Volume Inhibition Rate TGITV(%):” for “Tumor volume inhibition rate TGITV (%):”, “TGI %=(1−ΔT/ΔC)×100%; Where:” for “TGI %=(1−ΔT/ΔC)×100%, wherein”, “group, To” for “group, T0”
Pharmacological activity was evacuated based on tumor suppression rate (TGITV), and tolerance was assessed based on changes in animal weight and mortality.

[7] = target: TRKA^WT kinase (Homo sapiens (Human), UniProt P04629); test: Inhibitory activity against TRKA WT kinase (Caliper mobility shift); type: biochemical; conditions: in vitro kinase assay
Procedure: (§6) Kinase Assay Process: 1× Kinase buffer was prepared. […] The compounds were serially diluted into 10 concentrations ([…], 0.15, and 0.05 nM) using a Precision 3-fold dilution method. By using the Echo550 liquid handler, 250 nL of the 100-fold final concentration compound was transferred to an OptiPlate-384F plate. a 2.5× final concentration kinase solution was prepared using 1× Kinase buffer. 10 μL of the 2.5× final concentration kinase solution was added to the compound wells and the positive control wells, and 10 μL of 1× Kinase buffer was added to the negative control wells. The plate was centrifuged at 1000 rpm for 30 seconds, vortexed for mixing, and then incubated at room temperature for 10 minutes. A mixture of 5/3× final concentration of ATP and Kinase Substrate 22 was prepared using 1× Kinase buffer. 15 μL of the mixture of the 5/3× final concentration ATP and the substrate was added to initiate the reaction, the 384-well plate was centrifuged at 1000 rpm for 30 seconds, vortexed for mixing, and incubated at room temperature for the required time. 30 μL of the termination solution was added to stop the kinase reaction, the plate was centrifuged at 1000 rpm for 30 seconds, and vortexed for mixing. The conversion rate was measured using the Caliper EZ Reader.
(§7) Data Analysis: the inhibition rate was calculated as follows:
(§8) % Inhibition=(Conversion %_max−conversion %_sample)÷(Conversion %_max−conversion %_min)×100
(§9) Conversion %_sample is the conversion rate reading for the sample; Conversion %_min is the average value of the negative control wells, representing the conversion rate for wells without enzyme activity: Conversion %_max is the average value of the positive control wells, representing the conversion rate for wells without compound inhibition. A dose-response curve was fitted using the log concentration of the compound as the X-axis and the percentage inhibition as the Y-axis. The log(inhibitor) vs. response-variable slope of the GraphPad Prism 5 software was used to fit the dose-response curve, and the IC50 value for each compound was obtained. The calculation formula is:
(§10) Y=Bottom+(Top−Bottom)/(1+10^((Log IC50−X)*HillSlope)).
(§11) wherein X represents the concentration of the compound to be tested; Y represents the inhibition rate at the concentration X: Top refers to the maximum response: Bottom refers to the baseline response; HillSlope refers to the slope of the curve (i.e., the gradient).

[8] = target: TRKA^F589L kinase (Homo sapiens (Human), UniProt P04629, F589L); test: Inhibitory activity against TRKA(F589L) kinase (Caliper mobility shift); type: biochemical; conditions: in vitro kinase assay
Procedure: as §6, §7, §8, §9, §10, §11

Sequence of TRKA^F589L kinase (P04629 33-796 F589L): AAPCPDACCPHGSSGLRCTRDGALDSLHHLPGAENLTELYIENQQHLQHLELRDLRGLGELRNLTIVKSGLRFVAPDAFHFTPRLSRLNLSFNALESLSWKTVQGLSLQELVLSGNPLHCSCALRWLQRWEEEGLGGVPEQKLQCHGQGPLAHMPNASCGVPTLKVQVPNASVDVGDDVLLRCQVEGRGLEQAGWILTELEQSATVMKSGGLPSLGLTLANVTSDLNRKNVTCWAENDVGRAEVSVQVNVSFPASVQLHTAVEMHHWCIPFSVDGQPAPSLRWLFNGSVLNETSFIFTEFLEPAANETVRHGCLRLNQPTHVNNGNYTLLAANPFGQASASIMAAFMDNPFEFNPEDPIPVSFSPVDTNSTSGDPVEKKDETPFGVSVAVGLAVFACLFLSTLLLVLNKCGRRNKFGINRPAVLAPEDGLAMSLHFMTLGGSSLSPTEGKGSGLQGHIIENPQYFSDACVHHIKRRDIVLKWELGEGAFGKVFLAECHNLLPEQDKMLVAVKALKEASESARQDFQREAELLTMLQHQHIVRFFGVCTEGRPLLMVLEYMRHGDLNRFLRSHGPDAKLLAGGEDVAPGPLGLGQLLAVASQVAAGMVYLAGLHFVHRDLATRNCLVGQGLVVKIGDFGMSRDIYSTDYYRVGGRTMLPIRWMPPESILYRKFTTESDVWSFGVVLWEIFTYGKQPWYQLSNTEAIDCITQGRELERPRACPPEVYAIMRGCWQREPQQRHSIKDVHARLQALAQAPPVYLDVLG
Sequence of TRKA^WT kinase (P04629 33-796): as the sequence (P04629 33-796 F589L) above, with L557F counted along it

Compound: CC1Nc2ccc3ncc(n3n2)-c2cc(ccn2)OCc2ncc(F)cc21 (stereo not shown) [Example I-12, (E)-5^5-fluoro-6-methyl-3-oxa-7-aza-1(3,6)-imidazo[1,2-b]pyridazina-2(2,4), 5(2,3)-dipyridinacycloheptaphane]
ring closure, isolated yield ([1]; from CC(Nc1ccc2ncc(-c3cc(O)ccn3)n2n1)c1cc(F)cnc1CO, 13-membered ring, SOCl2, then K2CO3, DCM/DMF, then DMF (DCM evaporated), 15.7 mM, 90.0 °C, 2.0 h, 2 steps): 22.6%
IC50 [2]: < 100 nM

Compound: Fc1cnc2c(c1)[C@H]1C[C@H](F)CN1c1ccc3ncc(n3n1)-c1cc(ccn1)CO2 [Example I-52, (14bR,16S,E)-13,16-difluoro-14b,15,16,17-tetrahydro-9H-1,19-etheno-4,8-(metheno)imidazo[1,5-h]pyrido[2,3-b]pyrrolo[2,1-d][1]oxa[5,7,8,11]tetraazacyclopentadecine]
IC50 [2]: 0.88 nM
IC50 [3]: 0.3 nM
IC50 [4]: 0.02 nM
Average Tumor Volume ([5]; Day 4, 10 mg/kg oral BID): 182.5 mm^3
Average Tumor Volume ([5]; Day 6, 10 mg/kg oral BID): 192.7 mm^3
Average Tumor Volume ([5]; Day 8, 10 mg/kg oral BID): 176.5 mm^3
Average Tumor Volume ([5]; Day 10, 10 mg/kg oral BID): 146.3 mm^3
Average Tumor Volume ([5]; Day 12, 10 mg/kg oral BID): 113.1 mm^3
Average Tumor Volume ([5]; Day 14, 10 mg/kg oral BID): 74.4 mm^3
Average Tumor Volume ([5]; Day 15, 10 mg/kg oral BID): 67.9 mm^3
Average Tumor Volume ([5]; Day 17, 10 mg/kg oral BID): 60.1 mm^3
Average Tumor Volume ([5]; Day 19, 10 mg/kg oral BID): 32.8 mm^3
Average Tumor Volume ([5]; Day 21, 10 mg/kg oral BID): 0.0 mm^3
Average Tumor Volume ([5]; Day 23, 10 mg/kg oral BID): 0.0 mm^3
Average Tumor Volume ([5]; Day 25, 10 mg/kg oral BID): 0.0 mm^3
Average Tumor Volume ([5]; Day 27, 10 mg/kg oral BID): 0.0 mm^3
TGITV ([5]; Day 29, 10 mg/kg oral BID): 112%
Tumor Regression Rate ([5]; Day 29, 10 mg/kg oral BID): 100%
Tumor Volume (average) ([5]; Day 29, 10 mg/kg oral BID): 0.0 mm^3
Average Tumor Volume ([5]; Day 29, 10 mg/kg oral BID (Table 7)): 0.0 mm^3
Average Body Weight ([6]; Day 2): 19.1 g
Average Body Weight ([6]; Day 7): 20.9 g
Average Body Weight ([6]; Day 9): 21.0 g
Average Body Weight ([6]; Day 11): 21.8 g
Average Body Weight ([6]; Day 13): 22.0 g
Average Body Weight ([6]; Day 15): 22.8 g
Average Body Weight ([6]; Day 17): 23.0 g
Average Body Weight ([6]; Day 19): 23.7 g
Average Body Weight ([6]; Day 21): 23.3 g
Average Body Weight ([6]; Day 23): 24.3 g
Average Body Weight ([6]; Day 25): 24.7 g
Average Body Weight ([6]; Day 27): 25.3 g
Average Body Weight ([6]; Day 29): 24.6 g
Relative Tumor Volume (average) ([6]; Day 29): 308.6%
TGITV ([6]; Day 29): 84%
Tumor Volume (average) ([6]; Day 29): 636.5 mm^3

Compound: (E)-4-methyl-6-oxa-3-aza-2(3,6)-imidazo [1,2-b]pyridazina-1(2,4)-pyridina-5(1,2)-benzenacyclooctaphane
ring closure, isolated yield ([1]; 14-membered ring, PPh3/DIAD, THF, 15.8 mM, 60.0 °C): 18.4%

The next lines start with the values.

IC50 [7]: < 3 nM
IC50 [8]: < 5 nM
IC50 [2]: 10.1 nM
IC50 [3]: 1.7 nM
IC50 [4]: 0.12 nM
Compound: Fc1cnc2c(c1)[C@H]1C[C@H](F)CN1c1ccc3ncc(n3n1)-c1nccc(n1)CCO2 [Example I-88, (3^2R,3^4S,E)-3^4,4^5-difluoro-5-oxa-2(3,6)-imidazo[1,2-b]pyridazina-1(2,4)-pyrimidina-4(3,2)-pyridina-3(1,2)-pyrrolidinacycloheptaphane]

IC50 [7]: < 3 nM
IC50 [8]: < 5 nM
IC50 [2]: 16.3 nM
IC50 [3]: 1.5 nM
IC50 [4]: 0.22 nM
Compound: C[C@@H]1Cc2cc(ncn2)-c2cnc3ccc(nn23)N2C[C@@H](F)C[C@@H]2c2cc(F)ccc2O1 [Example I-98, (3^2R,3^4S,6R,E)-3^4,4^5-difluoro-6-methyl-5-oxa-2(3,6)-imidazo[1,2-b]pyridazina-1(4,6)-pyrimidina-3(1,2)-pyrrolidina-4(1,2)-benzenacycloheptaphane]
